Test results from article PMC6925188, “PBRM1 acts as a p53 lysine-acetylation reader to suppress renal tumor growth” (Nature Communications, 2019).

Experiments:
[1] = tested on: PBRM1-p53 interaction; test: Co-immunoprecipitation of Flag-PBRM1 and Myc-p53 (anti-Flag M2) in H1299 cells; assay type: cell-based
From the text: Fig. 1 PBRM1 and p53 display a physical association that is enhanced after DNA damage. a U2OS cells (left) and HEK293T cells (right) were transfected with vector or Flag-PBRM1 and harvested for immunoprecipitation with Flag-M2 beads and elution with 3X Flag peptide. […] Lysates were subjected to immunoprecipitation with Flag-M2 beads. […] Lysates were immunoprecipitated with p53 antibody. The bound PBRM1 and p53 were examined by immunoblots. Source data are provided as a Source Data file.
For anti-Flag immunoprecipitation, cell pellets harvested from one 10 cm culture dish were resuspended in 500 µl hypotonic buffer (10 mM Tris-HCl, pH 8.0, 1.5 mM MgCl2, 10 mM KCl) with protease and phosphatase inhibitors, 2 μM TSA and 10 mM NAM, and samples were incubated on ice for 15 min. Twenty-five microliters of Triton X-100 was added and samples were vortexed for 10 s. After centrifuging for 30 s at 14,000 × g, supernatants were removed and pellets were resuspended in 100 µl hypertonic buffer (20 mM Tris-HCl pH 8.0, 420 mM KCl, 1.5 mM MgCl2, 20% (v/v) glycerol) with protease and phosphatase inhibitors, 2 μM TSA and 10 mM NAM and vortexed for 10 s. Pellets were incubated on ice for 40 min and vortexed for 15 s every 10 min. After centrifuging for 10 min at 14,000 × g, supernatants were collected and diluted with 300 µl EBC buffer (50 mM Tris-HCl (pH 7.5), 120 mM NaCl, 0.5% NP-40) with protease and phosphatase inhibitors, 2 μM TSA and 10 mM NAM. […] Beads were washed four times with EBC buffer and eluted with 3X Flag peptide (F4799, Sigma-Aldrich) overnight at 4 °C. The input and Flag-elution were analyzed by SDS-PAGE and immunoblot.
Supplementary Figure 2. […]
a. Vectors, Flag-PBRM1 or Myc-p53 were transfected into H1299 cells as indicated, and treated with 5 µM nicotinamide or vehicle. Lysates were used for anti-Flag immunoprecipitation and 3X Flag peptide elution. The inputs and eluates were immunoblotted with the indicated antibodies. […]
Flag-PBRM1, wildtype or K382Q mutated Myc-p53 were transfected into H1299 cells with indicated combinations. Lysates were used for anti-Flagimmunoprecipitation followed by Flag peptide elution. […]

[2] = tested on: Ren-01 PBRM1 KO cells; test: Immunoblot of p53 targets, Ren-01 PBRM1 KO cells; assay type: cell-based; conditions: 50 μM etoposide
Experimental: The band intensity of indicated protein was measured with Bio-rad Image Lab 4.1, and the relative ratios were calculated over the signal intensity of Vinculin in the corresponding lanes. c–e. Nude mice xenograft analyses were performed with Ren-01 PBRM1 KO cells expressing GFP (left flank) or PBRM1 (right flank). Representative photographs of a mouse (c, top) and tumors (c, bottom). Tumors were excised and weighed, and data are presented as mean ± SEM (d). p-values were calculated using the paired two-tailed Student’s t-test. Tumors were stained for PBRM1 and p21 expression via IHC (e). Scale bar: 200 μm. f–h Nude mice xenograft analyses were performed with Ren-01 PBRM1 KO cells expressing wild-type PBRM1 (left flank) or the BD4* mutant PBRM1 (right flank). Tumors were excised and weighed, and data are presented as mean ± SEM (g). p-values were calculated using the paired two-tailed Student’s t-test. Representative photographs of a mouse (f, top) and tumors (f, bottom). Tumors were stained for PBRM1 and p21 expression via IHC analysis (h). Scale bar: 200 μm. Source data are provided as a Source Data file.
After washing with ice-cold PBS, cells were scraped on ice and centrifuged at 10,000 × g for 1 min at 4 °C. […]

Question: For `COc1cc([C@@H]2c3cc4c(cc3[C@@H](O[C@@H]3O[C@@H]5CO[C@@H](C)O[C@H]5[C@H](O)[C@H]3O)[C@H]3COC(=O)[C@H]23)OCO4)cc(OC)c1O` [Etoposide], which “PBRM1 and exogenous p53 protein levels” value ([1]; H1299, etoposide 50 μM or bleomycin 10 μg/ml) is on record?
Answer: neither the PBRM1 nor the exogenous p53 levels changed

Question: What about the PBRM1-p53 interaction ([1]; H1299 co-transfected with PBRM1 and p53, etoposide 50 μM) of the same compound?
Answer: enhanced

Question: What about the “expression of p53 downstream targets after DNA damage, wild-type vs BD4* PBRM1” value [2] of the same compound?
Answer: rescued by wild-type but not BD4* mutant PBRM1
